Data as given in patent US10286034B2, “Uses of bremelanotide in therapy for female sexual dysfunction” (Palatin Technologies, Inc., priority 2012, dated 2019).
Marks after values point to notes of the source that are not given here.

Assay: Example 1: ambulatory blood pressure monitoring after in-clinic dose
Format: in vivo, human
Settings: for Pulse: treatment group difference (from placebo) in mean change: in bpm; for DBP: treatment group difference (from placebo) in mean change / SBP: treatment group difference (from placebo) in mean change: in mmHg (unit assumed); for HR-BP Product: treatment group difference (from placebo) in mean change: in mmHg·bpm (unit assumed)
Experimental: Ambulatory blood pressure monitoring was conducted following both placebo and randomized treatment group in-clinic administrations. Three periods of ambulatory blood pressure monitoring were included, the first period was from before to 24 hours after a single, in-clinic dose of placebo (to establish a baseline); the second and third periods occurred from before to 24 hours after each of 2 single, in-clinic doses of double-blind treatment, administered within 14 days of each other. Blood samples for pharmacokinetic analysis were collected before and at 0.5, 1.0, and 2.0 hours after each in-clinic bremelanotide single-dose treatment (double-blind only), to permit analysis of concentration-response relationships.
Mean changes in blood pressure were characterized in all subjects based on sequential supervised dosing of single-blind subcutaneous placebo and two doses of randomized study drug. The primary analysis for mean changes was the difference between treatment groups in the change from single-blind placebo to randomized drug (Visit 2 vs. Visits 5/7). There were between 86 to 100 subjects in each dose group.
Although there were an increased number of outliers for maximal changes from baseline in systolic blood pressure in drug-treated patients, the duration of these events was quite limited. The interrogation interval during ambulatory blood pressure monitoring assessments of 15 minutes allowed definition of the maximal duration of such excursions. […] The clinical significance of such changes, if any, is small.

[1] = 0.75 mg SC, interval 0-24 h, V5
[2] = 0.75 mg SC, interval 0-24 h, V7
[3] = 0.75 mg SC, interval 8-24 h, V5
[4] = 0.75 mg SC, interval 8-24 h, V7
[5] = 1.25 mg SC, interval 0-24 h, V5
[6] = 1.25 mg SC, interval 0-24 h, V7

CCCC[C@H](NC(C)=O)C(=O)N[C@H]1CC(=O)NCCCC[C@@H](C(=O)O)NC(=O)[C@H](Cc2c[nH]c3ccccc23)NC(=O)[C@H](CCCNC(=N)N)NC(=O)[C@@H](Cc2ccccc2)NC(=O)[C@H](Cc2c[nH]cn2)NC1=O [bremelanotide, Ac-Nle-cyclo(-Asp-His-D-Phe-Arg-Trp-Lys)-OH]
Pulse: treatment group difference (from placebo) in mean change (0.75 mg SC, interval 0-4 h, V5): −5.2*
DBP: treatment group difference (from placebo) in mean change (0.75 mg SC, interval 0-4 h, V5): 1.5
SBP: treatment group difference (from placebo) in mean change (0.75 mg SC, interval 0-4 h, V5): 1.8
HR-BP Product: treatment group difference (from placebo) in mean change (0.75 mg SC, interval 0-4 h, V5): −492.8*
Pulse: treatment group difference (from placebo) in mean change (0.75 mg SC, interval 0-4 h, V7): −4.8*
DBP: treatment group difference (from placebo) in mean change (0.75 mg SC, interval 0-4 h, V7): 0.6
SBP: treatment group difference (from placebo) in mean change (0.75 mg SC, interval 0-4 h, V7): 1.1
HR-BP Product: treatment group difference (from placebo) in mean change (0.75 mg SC, interval 0-4 h, V7): −491.9*
Pulse: treatment group difference (from placebo) in mean change [1]: −2.2*
DBP: treatment group difference (from placebo) in mean change [1]: 1.1*
SBP: treatment group difference (from placebo) in mean change [1]: 1.1
HR-BP Product: treatment group difference (from placebo) in mean change [1]: −187.7
Pulse: treatment group difference (from placebo) in mean change [2]: −1.6
DBP: treatment group difference (from placebo) in mean change [2]: 1.3*
SBP: treatment group difference (from placebo) in mean change [2]: 1.5
HR-BP Product: treatment group difference (from placebo) in mean change [2]: −82.3
Pulse: treatment group difference (from placebo) in mean change (0.75 mg SC, interval 4-8 h, V5): −6.2*
DBP: treatment group difference (from placebo) in mean change (0.75 mg SC, interval 4-8 h, V5): 1.3
SBP: treatment group difference (from placebo) in mean change (0.75 mg SC, interval 4-8 h, V5): 0.9
HR-BP Product: treatment group difference (from placebo) in mean change (0.75 mg SC, interval 4-8 h, V5): −676.5*
Pulse: treatment group difference (from placebo) in mean change (0.75 mg SC, interval 4-8 h, V7): −5.5*
DBP: treatment group difference (from placebo) in mean change (0.75 mg SC, interval 4-8 h, V7): 1.7
SBP: treatment group difference (from placebo) in mean change (0.75 mg SC, interval 4-8 h, V7): 1.6
HR-BP Product: treatment group difference (from placebo) in mean change (0.75 mg SC, interval 4-8 h, V7): −503.3*
Pulse: treatment group difference (from placebo) in mean change [3]: −0.4
DBP: treatment group difference (from placebo) in mean change [3]: 1.0
SBP: treatment group difference (from placebo) in mean change [3]: 0.9
HR-BP Product: treatment group difference (from placebo) in mean change [3]: 5.2
Pulse: treatment group difference (from placebo) in mean change [4]: 0.1
DBP: treatment group difference (from placebo) in mean change [4]: 1.3*
SBP: treatment group difference (from placebo) in mean change [4]: 1.6
HR-BP Product: treatment group difference (from placebo) in mean change [4]: 114.9
Pulse: treatment group difference (from placebo) in mean change (1.25 mg SC, interval 0-4 h, V5): −5.2*
DBP: treatment group difference (from placebo) in mean change (1.25 mg SC, interval 0-4 h, V5): 3.0*
SBP: treatment group difference (from placebo) in mean change (1.25 mg SC, interval 0-4 h, V5): 2.4*
HR-BP Product: treatment group difference (from placebo) in mean change (1.25 mg SC, interval 0-4 h, V5): −436.4*
Pulse: treatment group difference (from placebo) in mean change (1.25 mg SC, interval 0-4 h, V7): −6.1*
DBP: treatment group difference (from placebo) in mean change (1.25 mg SC, interval 0-4 h, V7): 2.2*
SBP: treatment group difference (from placebo) in mean change (1.25 mg SC, interval 0-4 h, V7): 2.1*
HR-BP Product: treatment group difference (from placebo) in mean change (1.25 mg SC, interval 0-4 h, V7): −583.3*
Pulse: treatment group difference (from placebo) in mean change [5]: −2.9*
DBP: treatment group difference (from placebo) in mean change [5]: 1.9*
SBP: treatment group difference (from placebo) in mean change [5]: 1.1
HR-BP Product: treatment group difference (from placebo) in mean change [5]: −265.9
Pulse: treatment group difference (from placebo) in mean change [6]: −2.6*
DBP: treatment group difference (from placebo) in mean change [6]: 1.7*
SBP: treatment group difference (from placebo) in mean change [6]: 1.6*
HR-BP Product: treatment group difference (from placebo) in mean change [6]: −206.5
Pulse: treatment group difference (from placebo) in mean change (1.25 mg SC, interval 4-8 h, V5): −6.1*
DBP: treatment group difference (from placebo) in mean change (1.25 mg SC, interval 4-8 h, V5): 2.2*
SBP: treatment group difference (from placebo) in mean change (1.25 mg SC, interval 4-8 h, V5): 1.4
HR-BP Product: treatment group difference (from placebo) in mean change (1.25 mg SC, interval 4-8 h, V5): −621.0*
Pulse: treatment group difference (from placebo) in mean change (1.25 mg SC, interval 4-8 h, V7): −6.5*
DBP: treatment group difference (from placebo) in mean change (1.25 mg SC, interval 4-8 h, V7): 0.9
